Measurements taken from ChEMBL document CHEMBL1147838, “Design, synthesis, and evaluation of phenanthridine derivatives targeting the telomerase RNA/DNA heteroduplex” (Bioorg Med Chem Lett, 2007).

Experiment: Inhibition of telomerase by fluorescence based assay
Design: species or system Homo sapiens

Row | IC50 | SMILES
1 | 2.9 µM | NC(=O)c1ccc(C[n+]2c(-c3ccccc3)c3cc(N)ccc3c3ccc(N)cc32)cc1
2 | 23.3 µM | Nc1ccc2c(c1)c(-c1ccccc1)[n+](CCCCCC(=O)O)c1cc(N)ccc21
3 | 68.2 µM | CC[n+]1c(-c2ccccc2)c2cc(NC(=O)CCCC(N)=O)ccc2c2ccc(N)cc21
4 | 30.3 µM | NC(=O)CCCCC[n+]1c(-c2ccccc2)c2cc(N)ccc2c2ccc(N)cc21
5 | > 80 µM | CC[n+]1c(-c2ccccc2)c2cc(N)ccc2c2ccc(NC(=O)CCCC(=O)O)cc21
6 | 27.3 µM | Nc1ccc2c(c1)c(-c1ccccc1)[n+](Cc1ccc(C(=O)O)cc1)c1cc(N)ccc21

Further lines, the compound ahead of its results:

Row | SMILES | IC50
7 | CC[n+]1c(-c2ccccc2)c2cc(N)ccc2c2ccc(NC(=O)CCCC(N)=O)cc21 | 5.6 µM
8 | CC[n+]1c(-c2ccccc2)c2cc(NC(=O)CCCC(=O)O)ccc2c2ccc(N)cc21 | > 80 µM
9 | CC[n+]1c(-c2ccccc2)c2cc(NC(=O)CCCC(N)=O)ccc2c2ccc(NC(=O)CCCC(N)=O)cc21 | > 80 µM
10 | CC[n+]1c(-c2ccccc2)c2cc(NC(=O)CCCC(=O)O)ccc2c2ccc(NC(=O)CCCC(=O)O)cc21 | 63.1 µM
